Assay results from patent US10689378B2, “Triazolopyridine compounds and uses thereof” (Novartis AG, priority 2016, dated 2020).
pIC50: −log10 of the molar value. Where two headings read alike, the source gives them in different places.

How the values were obtained:
[1] = tested on: H3K27 methylation in G401 cell; experiment: ELISA (H3K27 methylation) assay in G401 cells; type: cell-based, human; conditions: Homo sapiens
Summary of the method: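 G401 cells treated 48 h with 3-fold dilutions (8 or 12 points, top 20 μM). Acid-extracted histones probed by ELISA for H3K27me3 or H3K27me2 with ECL readout, normalized to total H3. Percent inhibition versus DMSO fitted to dose-response curve for IC50.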

[2] = target: T1, EED (1-441)-His protein (Homo sapiens, UniProt O75530); experiment: EED-H3K27Me3 peptide competition binding assay by AlphaScreen
T1 construct: 30 nM EED (1-441)-His protein
Summary of the method: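 Serially diluted compound (12 points, 3-fold) incubated 20 min with 30 nM EED(1-441)-His and 15 nM biotin-H3K27Me3(19-33) peptide in 25 mM HEPES pH 8, 0.02% Tween-20, 0.5% BSA. Ni-chelate acceptor/streptavidin donor beads (10 μg/mL each) added, 1 h rt dark; 615 nm emission normalized to controls, dose-response fit for IC50.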

[3] = target: wild type PRC2 (wtPRC2) complex (Homo sapiens, UniProt O75530); experiment: EED LC-MS assay (SAH production by PRC2); type: biochemical
Summary of the method: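 Pentameric PRC2 (EZH2, SUZ12, EED, Rbap48, AEBP), 12 nM final, preincubated 20 min with compound and SAM, then 1.5 μM biotinylated H3K27me0 peptide, 1 μM SAM, pH 8.0, 120 min at rt. SAH quantified by LC-MS/MS with d4-SAH; control-normalized activity fitted for IC50.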

[4] = G-401, H3K27 methylation ELISA, read-out: (c) IC50 ELISA Qualified
[5] = EED-H3K27Me3 peptide competition, AlphaScreen, read-out: (a) IC50 EED Alphascreen binding Qualified
[6] = PRC2 LC-MS assay, read-out: (b) IC50 EED LC-MS Qualified
[7] = G-401, read-out: (c) IC50 ELISA Qualified
[8] = read-out: (a) IC50 EED Alphascreen binding Qualified
[9] = read-out: (b) IC50 EED LC-MS Qualified
[10] = G-401, read-out: (c) IC50, ELISA Qualified
[11] = read-out: (a) IC50, EED Alphascreen binding Qualified
[12] = read-out: (b) IC50, EED LC-MS Qualified

T1 sequence (O75530 whole entry): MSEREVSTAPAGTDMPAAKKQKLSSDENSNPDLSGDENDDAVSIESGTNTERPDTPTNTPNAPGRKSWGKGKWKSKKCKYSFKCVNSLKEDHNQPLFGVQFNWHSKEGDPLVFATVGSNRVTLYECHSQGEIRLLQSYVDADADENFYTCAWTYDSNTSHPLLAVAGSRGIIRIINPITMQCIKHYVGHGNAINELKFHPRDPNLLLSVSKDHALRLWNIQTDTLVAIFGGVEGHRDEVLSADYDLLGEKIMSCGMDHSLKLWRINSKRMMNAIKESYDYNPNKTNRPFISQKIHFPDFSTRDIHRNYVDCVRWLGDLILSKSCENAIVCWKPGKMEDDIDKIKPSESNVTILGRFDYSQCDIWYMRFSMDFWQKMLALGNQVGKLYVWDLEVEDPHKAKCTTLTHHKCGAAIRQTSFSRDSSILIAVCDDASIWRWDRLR
Chain of wild type PRC2 (wtPRC2) complex (O75530 whole entry): as above
Chain of wild type PRC2 (wtPRC2) complex (Q15910 whole entry partner): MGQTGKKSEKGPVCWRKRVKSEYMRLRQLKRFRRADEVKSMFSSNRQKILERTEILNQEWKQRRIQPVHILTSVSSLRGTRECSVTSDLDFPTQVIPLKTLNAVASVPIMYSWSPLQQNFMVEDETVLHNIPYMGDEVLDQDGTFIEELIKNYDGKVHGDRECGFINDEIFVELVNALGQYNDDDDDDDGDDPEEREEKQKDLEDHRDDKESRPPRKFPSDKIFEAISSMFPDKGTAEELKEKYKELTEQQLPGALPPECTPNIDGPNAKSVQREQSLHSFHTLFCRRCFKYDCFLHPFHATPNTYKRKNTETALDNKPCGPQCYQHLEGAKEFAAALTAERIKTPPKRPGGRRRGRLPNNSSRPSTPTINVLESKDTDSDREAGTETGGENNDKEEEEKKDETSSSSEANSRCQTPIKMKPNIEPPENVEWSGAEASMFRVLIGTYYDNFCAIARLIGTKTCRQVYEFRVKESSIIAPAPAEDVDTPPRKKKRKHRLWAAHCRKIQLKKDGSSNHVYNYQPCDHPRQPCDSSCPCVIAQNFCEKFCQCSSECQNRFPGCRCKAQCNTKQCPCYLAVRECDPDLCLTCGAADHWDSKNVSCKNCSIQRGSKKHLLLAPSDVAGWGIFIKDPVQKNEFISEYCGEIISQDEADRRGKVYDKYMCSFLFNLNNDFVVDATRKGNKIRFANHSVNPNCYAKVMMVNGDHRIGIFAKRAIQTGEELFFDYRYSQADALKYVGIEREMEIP
Chain of wild type PRC2 (wtPRC2) complex (Q15022 whole entry partner): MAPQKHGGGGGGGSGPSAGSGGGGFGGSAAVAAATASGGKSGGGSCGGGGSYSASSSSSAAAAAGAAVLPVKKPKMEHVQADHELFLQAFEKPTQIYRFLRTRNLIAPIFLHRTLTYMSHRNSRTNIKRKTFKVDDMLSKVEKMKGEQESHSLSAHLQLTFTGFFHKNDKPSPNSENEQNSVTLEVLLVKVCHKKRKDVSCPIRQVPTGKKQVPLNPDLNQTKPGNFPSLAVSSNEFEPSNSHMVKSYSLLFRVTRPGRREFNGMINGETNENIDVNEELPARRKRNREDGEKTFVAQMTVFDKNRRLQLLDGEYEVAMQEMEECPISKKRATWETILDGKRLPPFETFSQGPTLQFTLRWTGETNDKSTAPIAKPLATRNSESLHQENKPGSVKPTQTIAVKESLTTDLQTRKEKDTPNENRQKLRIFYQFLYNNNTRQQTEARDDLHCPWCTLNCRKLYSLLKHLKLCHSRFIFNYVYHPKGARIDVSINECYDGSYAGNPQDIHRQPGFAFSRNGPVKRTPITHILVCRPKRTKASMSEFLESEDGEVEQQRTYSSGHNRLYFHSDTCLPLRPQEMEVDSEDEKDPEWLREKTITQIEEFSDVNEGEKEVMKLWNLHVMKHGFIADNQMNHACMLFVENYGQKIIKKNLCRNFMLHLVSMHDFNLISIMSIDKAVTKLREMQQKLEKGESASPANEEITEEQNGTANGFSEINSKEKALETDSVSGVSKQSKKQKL
Chain of wild type PRC2 (wtPRC2) complex (Q09028 whole entry partner): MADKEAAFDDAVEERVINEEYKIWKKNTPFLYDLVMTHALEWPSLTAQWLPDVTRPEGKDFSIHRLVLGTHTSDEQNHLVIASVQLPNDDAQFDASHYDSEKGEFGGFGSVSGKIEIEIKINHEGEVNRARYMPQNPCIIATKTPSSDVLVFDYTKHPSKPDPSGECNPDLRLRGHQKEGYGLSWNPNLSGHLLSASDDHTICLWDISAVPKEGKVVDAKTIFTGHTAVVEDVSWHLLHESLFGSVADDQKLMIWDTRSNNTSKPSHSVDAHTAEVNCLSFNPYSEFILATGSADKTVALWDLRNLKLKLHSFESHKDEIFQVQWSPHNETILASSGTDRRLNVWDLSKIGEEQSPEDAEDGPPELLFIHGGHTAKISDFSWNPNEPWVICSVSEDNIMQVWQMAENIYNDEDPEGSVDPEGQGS
Chain of wild type PRC2 (wtPRC2) complex (Q6ZN18 whole entry partner): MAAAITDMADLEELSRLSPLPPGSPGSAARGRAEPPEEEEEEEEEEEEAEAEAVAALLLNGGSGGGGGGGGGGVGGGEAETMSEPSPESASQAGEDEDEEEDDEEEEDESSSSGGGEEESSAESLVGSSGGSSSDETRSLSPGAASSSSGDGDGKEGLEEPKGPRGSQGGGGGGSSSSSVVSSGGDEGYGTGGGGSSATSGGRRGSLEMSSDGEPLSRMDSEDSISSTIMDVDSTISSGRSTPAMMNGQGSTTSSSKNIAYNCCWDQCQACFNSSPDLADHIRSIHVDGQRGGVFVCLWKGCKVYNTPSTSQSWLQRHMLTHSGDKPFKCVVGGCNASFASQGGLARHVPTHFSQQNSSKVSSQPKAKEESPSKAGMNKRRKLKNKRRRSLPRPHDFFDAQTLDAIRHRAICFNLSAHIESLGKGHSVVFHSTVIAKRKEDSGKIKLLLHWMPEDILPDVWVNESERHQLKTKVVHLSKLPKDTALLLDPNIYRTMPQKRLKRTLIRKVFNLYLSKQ

Row | Compound | pIC50 [1, 4] | pIC50 [2, 5] | pIC50 [3, 6] | pIC50 [1, 10] | pIC50 [2, 11] | pIC50 [3, 12] | other results
1 | COc1cc(F)cc(F)c1CNc1ccc(-c2cnc(C)cc2C(F)F)c2nncn12 [Example 317, N-(2,4-difluoro-6-methoxybenzyl)-8-(4-(difluoromethyl)-6-methylpyridin-3-yl)-[1,2,4]triazolo [4,3-a]pyridin-5-amine] | 7.27 | 7.45 | 6.66 |  |  |  | 
2 | COc1cccc(F)c1CNc1ccc(-c2ccnn2C2CC2)c2nncn12 [Example 292, 8-(1-cyclopropyl-1H-pyrazol-5-yl)-N-(2-fluoro-6-methoxybenzyl)-[1,2,4] triazolo[4,3-a]pyridin-5-amine] | 7.94 | 7.54 | 6.71 |  |  |  | 
3 | COc1cccc(F)c1CNc1ccc(-n2cncn2)c2nncn12 [Example 358, N-(2-fluoro-6-methoxybenzyl)-8-(1H-1,2,4-triazol-1-yl)-[1,2,4]triazolo[4,3-a] pyridin-5-amine] |  |  |  |  |  |  | pIC50 [1, 7]: 7.71; pIC50 [2, 8]: 7.77; pIC50 [3, 9]: 6.54
4 | COc1cc(F)cc(F)c1CNc1ccc(-c2cncnc2C)c2nncn12 [Example 299, N-(2,4-difluoro-6-methoxybenzyl)-8-(4-methylpyrimidin-5-yl)-[1,2,4] triazolo[4,3-a]pyridin-5-amine] | 7.92 | 7.56 | 7.18 |  |  |  | 
5 | COc1ccccc1CNc1ccc(-c2ccc(NS(C)(=O)=O)cc2)c2nncn12 [Example 82, N-(4-(5-((2-methoxybenzyl)amino)-[1,2,4]triazolo[4,3-a]pyridin-8-yl)phenyl) methanesulfonamide] |  |  |  | 6.48 | 7.10 | 6.29 | 
6 | COc1c(F)ccc(F)c1CNc1ccc(-c2cnc(C)nc2C)c2nncn12 [Example 333, N-(3,6-difluoro-2-methoxybenzyl)-8-(2,4-dimethylpyrimidin-5-yl)-[1,2,4] triazolo[4,3-a]pyridin-5-amine] | 7.17 | 7.02 | 6.54 |  |  |  | 
7 | COc1cccc(F)c1CNc1ccc(-c2ccc(S(=O)(=O)C3CCNCC3)nc2)c2nncn12 [Example 179, N-(2-fluoro-6-methoxybenzyl)-8-(6-(piperidin-4-ylsulfonyl)pyridin-3-yl)-[1,2,4]triazolo[4,3-a]pyridin-5-amine] | 7.88 | 7.61 | 6.76 |  |  |  | 
8 | COc1cccc(F)c1CNc1ccc(-c2cccc(S(C)(=O)=O)c2)c2nncn12 [Example 142, N-(2-fluoro-6-methoxybenzyl)-8-(3-(methylsulfonyl)phenyl)-[1,2,4]triazolo[4,3-a]pyridin-5-amine] |  |  |  | 7.46 | 7.87 | 6.97 | 
9 | COc1ccccc1CNc1ccc(-c2ccc(S(C)(=O)=O)cc2)c2nncn12 [Example 25, N-(2-methoxybenzyl)-8-(4-(methylsulfonyl)phenyl)-[1,2,4]triazolo[4,3-a]pyridin-5-amine] |  |  |  | 7.30 | 7.47 | 6.82 | 
10 | COc1cccc(F)c1CNc1ccc(-c2ccc(S(C)(=O)=O)nc2C(F)F)c2nncn12 [Example 293, 8-(2-(difluoromethyl)-6-(methylsulfonyl)pyridin-3-yl)-N-(2-fluoro-6-methoxybenzyl)-[1,2,4] triazolo[4,3-a]pyridin-5-amine] | 7.97 | 7.50 | 7.70 |  |  |  | 
11 | COc1ccccc1CNc1ccc(-c2ccc(C(=O)N3CCCC3)cc2)c2nncn12 [Example 42, (4-(5-((2-methoxybenzyl)amino)-[1,2,4]triazolo[4,3-a]pyridin-8-yl)phenyl) (pyrrolidin-1-yl)methanone] |  |  |  | 7.55 | 7.78 | 6.69 | 
12 | COc1cc(F)cc(F)c1CNc1ccc(-c2ccc(C(=O)N(C)C)cc2C)c2nncn12 [Example 295, 4-(5-((2,4-difluoro-6-methoxybenzyl)amino)-[1,2,4]triazolo[4,3-a]pyridin-8-yl)-N,N,3-trimethyl benzamide] | 7.91 | 7.51 | 6.49 |  |  |  | 
13 | COc1ccccc1CNc1ccc(-c2ccc(S(=O)(=O)NCCO)cc2)c2nncn12 [Example 101, N-(2-hydroxyethyl)-4-(5-((2-methoxybenzyl)amino)-[1,2,4]triazolo[4,3-a]pyridin-8-yl)benzenesulfonamide] |  |  |  | 6.99 | 7.30 | 5.59 | 
14 | COc1ccccc1CNc1ccc(-c2ccc(C(=O)N(C)C)cc2)c2nncn12 [Example 41, 4-(5-((2-methoxybenzyl)amino)-[1,2,4]triazolo[4,3-a]pyridin-8-yl)-N,N-dimethyl benzamide] |  |  |  | 7.32 | 7.60 | 6.52 | 
15 | COc1cc(F)cc(F)c1CNc1ccc(-c2ccc(S(C)(=O)=O)cc2)c2nncn12 [Example 235, N-(2,4-difluoro-6-methoxybenzyl)-8-(4-(methylsulfonyl)phenyl)-[1,2,4]triazolo[4,3-a]pyridin-5-amine] | 6.86 | 7.16 | 6.97 |  |  |  | 
16 | COc1ccccc1CNc1ccc(-c2ccc(N3CCN(C)CC3C)nc2)c2nncn12 (stereo not drawn) [Example 180, 8-(6-(2,4-dimethylpiperazin-1-yl)pyridin-3-yl)-N-(2-methoxybenzyl)-[1,2,4] triazolo[4,3-a]pyridin-5-amine] | 7.24 | 7.25 | 6.77 |  |  |  | 
17 | COc1cccc(F)c1CNc1ccc(-c2cccnc2C#N)c2nncn12 [Example 340, 3-(5-((2-fluoro-6-methoxybenzyl)amino)-[1,2,4]triazolo[4,3-a]pyridin-8-yl) picolinonitrile] | 7.59 | 7.90 | 6.28 |  |  |  | 
18 | COc1cccc(F)c1CNc1ccc(-c2ncnn2C)c2nncn12 [Example 356, N-(2-fluoro-6-methoxybenzyl)-8-(1-methyl-1H-1,2,4-triazol-5-yl)-[1,2,4] triazolo[4,3-a]pyridin-5-amine] |  |  |  |  |  |  | pIC50 [1, 7]: 7.85; pIC50 [2, 8]: 7.72; pIC50 [3, 9]: 6.93
19 | COc1ccc(-c2ccc(NCc3c(F)cccc3OC)n3cnnc23)cn1 [Example 173, N-(2-fluoro-6-methoxybenzyl)-8-(6-methoxypyridin-3-yl)-[1,2,4]triazolo [4,3-a]pyridin-5-amine] | 7.39 | 7.44 | 6.91 |  |  |  | 
20 | CCc1cc(S(C)(=O)=O)ccc1-c1ccc(NCc2c(F)cccc2OC)n2cnnc12 [Example 271, 8-(2-ethyl-4-(methylsulfonyl)phenyl)-N-(2-fluoro-6-methoxybenzyl)-[1,2,4]triazolo[4,3-a]pyridin-5-amine] | 7.52 | 7.48 | 7.10 |  |  |  | 
21 | COc1cccc(F)c1CNc1ccc(-c2cnc(Cl)cc2C)c2nncn12 [Example 267, 8-(6-chloro-4-methylpyridin-3-yl)-N-(2-fluoro-6-methoxybenzyl)-[1,2,4]triazolo[4,3-a] pyridin-5-amine] | 7.84 | 7.77 | 7.12 |  |  |  | 
22 | COc1cccc(F)c1CNc1ccc(-c2cc(F)ccc2C)c2nncn12 [Example 223, 8-(5-fluoro-2-methylphenyl)-N-(2-fluoro-6-methoxybenzyl)-[1,2,4]triazolo[4,3-a] pyridin-5-amine] | 7.18 | 7.63 | 6.64 |  |  |  | 
23 | COc1cccc(F)c1CNc1ccc(-c2cnc(OC(C)C)nc2C)c2nncn12 [Example 332, N-(2-fluoro-6-methoxybenzyl)-8-(2-isopropoxy-4-methylpyrimidin-5-yl)-[1,2,4] triazolo[4,3-a]pyridin-5-amine] | 8.14 | 8.09 | 7.58 |  |  |  | 
24 | COc1ccccc1CNc1ccc(-c2ccc(CN3CCC3)cc2)c2nncn12 [Example 29, 8-(4-(azetidin-1-ylmethyl)phenyl)-N-(2-methoxybenzyl)-[1,2,4]triazolo[4,3-a] pyridin-5-amine] |  |  |  | 7.64 | 7.89 | 7.06 | 
25 | COc1cncc(-c2ccc(NCc3c(F)cccc3OC)n3cnnc23)c1 [Example 148, N-(2-fluoro-6-methoxybenzyl)-8-(5-methoxypyridin-3-yl)-[1,2,4] triazolo[4,3-a]pyridin-5-amine] |  |  |  | 7.22 | 7.54 | 7.00 | 
26 | COc1cccc(F)c1CNc1ccc(-c2ccc(NC(=O)N(C)C)nc2C)c2nncn12 [Example 368, 3-(5-(5-((2-fluoro-6-methoxybenzyl)amino)-[1,2,4]triazolo[4,3-a]pyridin-8-yl)-6-methylpyridin-2-yl)-1,1-dimethylurea] |  |  |  |  |  |  | pIC50 [1, 7]: 8.19; pIC50 [2, 8]: 7.93; pIC50 [3, 9]: 7.15
27 | COc1ccccc1CNc1ccc(-c2ccc(S(N)(=O)=O)cc2)c2nncn12 [Example 73, 4-(5-((2-methoxybenzyl)amino)-[1,2,4]triazolo[4,3-a]pyridin-8-yl)benzene sulfonamide] |  |  |  | 6.40 | 7.34 | 6.63 | 
